From US12453712B2, “Antitumoral use of cabazitaxel” (Sanofi Mature IP, priority 2009, dated 2025)

Experiments:
[1] = tested on: castration resistant metastatic prostate cancer; assay: Randomized clinical study of cabazitaxel vs mitoxantrone, each with prednisone or prednisolone: efficacy; assay type: in vivo, human; conditions: intention-to-treat
Method: (§1) A clinical study was performed wherein patients received either treatment with cabazitaxel or the reference treatment based on mitoxantrone each combined with prednisone or prednisolone.
(§2) More specifically, patients over 18 years of age with metastatic castration resistant metastatic prostate cancer either measurable by RECIST criteria or non-measurable disease with rising PSA levels or appearance of new lesions, ECOG (Eastern Cooperative Oncology Group) performance stage 0-2, and adequate organ function (patients had to have neutrophils >1,500 cells/mm^3, platelets >100,000 cells/mm^3, hemoglobin >10 g/dL, creatinine <1.5×upper limit of normal (ULN), total bilirubin <1×ULN, AST <1.5×ULN, and ALT <1.5×ULN) who had had prior hormone therapy, chemotherapy, and radiotherapy, but had progressive during or after docetaxel treatment (cumulative dose ≥225 mg/m^2) were randomized to 10 mg/day of prednisone with either mitoxantrone 12 mg/m^2 or cabazitaxel 25 mg/m^2, both administered every 3 weeks.
(§3) Patients with a history of congestive heart failure, or myocardial infarction within the last 6 months, or patients with uncontrolled cardiac arrhythmias, angina pectoris, and/or hypertension were not included in the study.
(§4) 720 patients were planned to be included in the clinical study: 360 in each cabazitaxel+prednisone and mitoxantrone+prednisone group. Seven hundred and fifty-five patients (755) (median age 68; 84% white) were actually enrolled, 378 in the cabazitaxel and prednisone/prednisolone group and 377 in the mitoxantrone and prednisone/prednisolone group. The maximal number of treatment cycles was 10 for cabazitaxel and 10 for mitoxantrone. The median number of treatment cycles was 6 for cabazitaxel and 4 for mitoxantrone. The median prior dose of docetaxel treatment was 576 mg/m^2 for the cabazitaxel group and 529 mg/m^2 for the mitoxantrone group. Median follow-up was 12.8 months.
The measurements of the results are performed via the same tests as at inclusion. MRI and spiral computed tomographic (CT) scans are preferably used.
The results are evaluated according to the following criteria (cf RECIST guideline): • overall survival (OS): the time from inclusion to the study to the date of death complete response (CR): disappearance of the lesions • partial response (PR): at least 30% reduction of the largest diameter of the lesion progression (PD): at least 20% increase in the sum of the largest diameter of the lesion or appearance of one or more new lesions • stable disease (SD): reduction of the tumour insufficient to be included in PR and increase of the tumour insufficient to be included in PD.
The confirmations of the measurements are made at least 4 weeks after the response criterion has been established for the first time.
The progression-free survival (PFS) is the time from inclusion in the study and the date of progression or death when the progression is either an increase of the PSA, or of the tumour, or of the pain.

[2] = Same clinical study: adverse reactions, hematologic abnormalities, treatment discontinuation, delays and dose reductions; assay type: in vivo, human
Method: as §1, §2, §3, §4

[3] = tested on: cancers that are resistant to hormone deprivation; conditions: docetaxel in combination with estramustine or prednisone; cited from earlier work
[4] = human, in vivo, listed as Mitoxantrone
[5] = percent of patients, laboratory values, cabazitaxel: n = 369, mitoxantrone: n = 370

In the case of O=C1c2c(O)ccc(O)c2C(=O)c2c(NCCNCCO)ccc(NCCNCCO)c21 [mitoxantrone, reference compound], the “Discontinuation of study treatment for disease progression, (%)” value [1] is reported as “(70.8) %”, the “Discontinuation of study treatment for disease progression, no.” value ([1]; N = 377 mitoxantrone, N = 378 cabazitaxel) is reported as 267 and the “Overall survival Median” value ([1]; 25 mg/m^2 cabazitaxel or 12 mg/m^2 mitoxantrone every 3 weeks with prednisone) is reported as 12.7 months. For the same compound, the “PFS Median” value ([1]; earliest progression in tumor, PSA or pain) was 1.4 months, the “Rates of febrile neutropenia” value ([2]; Example 1) was 1.3% and the “Dose reductions, cycles (%)” value ([2]; human, in vivo) was 5.1%. The “Dose reductions, no. of cycles” value ([2]; human, in vivo) was 88, the “Treatment delays >9 days, cycles (%)” value ([2]; human, in vivo) was 1.6% and the “Treatment delays >9 days, no. of cycles” value ([2]; human, in vivo) was 28. For the same compound, the “Treatment delays ≤9 days, cycles (%)” value ([2]; human, in vivo) was 6.3%, the “Treatment delays ≤9 days, no. of cycles” value ([2]; human, in vivo) was 110 and the “Dose reductions, cycles (%)” value [2, 4] was “(5.1) %”. The “Treatment delays >9 days, cycles (%)” value [2, 4] was “(1.6) %”, the “Treatment delays ≤9 days, cycles (%)” value [2, 4] was “(6.3) %” and the “Discontinuation of study treatment for adverse event, (%)” value ([2]; intention-to-treat) was “(8.5) %”. For the same compound, the “Discontinuation of study treatment for adverse event, no.” value ([2]; intention-to-treat, N = 377 mitoxantrone, N = 378 cabazitaxel) was 32, the “Abdominal Pain Grade 1-4, (%)” value ([2]; percent of patients of n = 371) was “(6%)” and the “Alopecia Grade 1-4, (%)” value ([2]; percent of patients of n = 371) was “(5%)”. The “Anorexia Grade 1-4, (%)” value ([2]; percent of patients of n = 371) was “(11%)”, the “Anorexia Grade 3-4, (%)” value ([2]; percent of patients of n = 371) was “(<1%)” and the “Arrhythmia Grade 1-4, (%)” value ([2]; percent of patients of n = 371) was “(2%)”. The “Arrhythmia Grade 3-4, (%)” value ([2]; percent of patients of n = 371) was “(<1%)”, the “Arthralgia Grade 1-4, (%)” value ([2]; percent of patients of n = 371) was “(8%)” and the “Arthralgia Grade 3-4, (%)” value ([2]; percent of patients of n = 371) was “(1%)”. The “Asthenia Grade 1-4, (%)” value ([2]; percent of patients of n = 371) was “(12%)”, the “Asthenia Grade 3-4, (%)” value ([2]; percent of patients of n = 371) was “(2%)” and the “Back Pain Grade 1-4, (%)” value ([2]; percent of patients of n = 371) was “(12%)”. The “Back Pain Grade 3-4, (%)” value ([2]; percent of patients of n = 371) was “(3%)”, the “Bone Pain Grade 1-4, (%)” value ([2]; percent of patients of n = 371) was “(5%)” and the “Bone Pain Grade 3-4, (%)” value ([2]; percent of patients of n = 371) was “(2%)”. For the same compound, the “Constipation Grade 1-4, (%)” value ([2]; percent of patients of n = 371) was “(15%)”, the “Constipation Grade 3-4, (%)” value ([2]; percent of patients of n = 371) was “(<1%)” and the “Cough Grade 1-4, (%)” value ([2]; percent of patients of n = 371) was “(6%)”. The “Dehydration Grade 1-4, (%)” value ([2]; percent of patients of n = 371) was “(3%)”, the “Dehydration Grade 3-4, (%)” value ([2]; percent of patients of n = 371) was “(<1%)” and the “Diarrhea Grade 1-4, (%)” value ([2]; percent of patients of n = 371) was “(11%)”. For the same compound, the “Diarrhea Grade 3-4, (%)” value ([2]; percent of patients of n = 371) was “(<1%)”, the “Dizziness Grade 1-4, (%)” value ([2]; percent of patients of n = 371) was “(6%)” and the “Dizziness Grade 3-4, (%)” value ([2]; percent of patients of n = 371) was “(<1%)”. The “Dysgeusia Grade 1-4, (%)” value ([2]; percent of patients of n = 371) was “(4%)”, the “Dyspepsia Grade 1-4, (%)” value ([2]; percent of patients of n = 371) was “(2%)” and the “Dyspnea Grade 1-4, (%)” value ([2]; percent of patients of n = 371) was “(4%)”. The “Dyspnea Grade 3-4, (%)” value ([2]; percent of patients of n = 371) was “(<1%)”, the “Dysuria Grade 1-4, (%)” value ([2]; percent of patients of n = 371) was “(1%)” and the “Fatigue Grade 1-4, (%)” value ([2]; percent of patients of n = 371) was “(27%)”. The “Fatigue Grade 3-4, (%)” value ([2]; percent of patients of n = 371) was “(3%)”, the “Febrile Neutropenia Grade 1-4, (%)” value ([2]; percent of patients of n = 371) was “(1%)” and the “Febrile Neutropenia Grade 3-4, (%)” value ([2]; percent of patients of n = 371) was “(1%)”. The “Headache Grade 1-4, (%)” value ([2]; percent of patients of n = 371) was “(5%)”, the “Hematuria Grade 1-4, (%)” value ([2]; percent of patients of n = 371) was “(4%)” and the “Hematuria Grade 3-4, (%)” value ([2]; percent of patients of n = 371) was “(<1%)”. For the same compound, the “Hypotension Grade 1-4, (%)” value ([2]; percent of patients of n = 371) was “(2%)”, the “Hypotension Grade 3-4, (%)” value ([2]; percent of patients of n = 371) was “(<1%)” and the “Mucosal Inflammation Grade 1-4, (%)” value ([2]; percent of patients of n = 371) was “(3%)”. The “Mucosal Inflammation Grade 3-4, (%)” value ([2]; percent of patients of n = 371) was “(<1%)”, the “Muscle Spasms Grade 1-4, (%)” value ([2]; percent of patients of n = 371) was “(3%)” and the “Musculoskeletal Pain Grade 1-4, (%)” value ([2]; percent of patients of n = 371) was “(5%)”. For the same compound, the “Musculoskeletal Pain Grade 3-4, (%)” value ([2]; percent of patients of n = 371) was “(<1%)”, the “Nausea Grade 1-4, (%)” value ([2]; percent of patients of n = 371) was “(23%)” and the “Nausea Grade 3-4, (%)” value ([2]; percent of patients of n = 371) was “(<1%)”. The “Pain Grade 1-4, (%)” value ([2]; percent of patients of n = 371) was “(5%)”, the “Pain Grade 3-4, (%)” value ([2]; percent of patients of n = 371) was “(2%)” and the “Pain in Extremity Grade 1-4, (%)” value ([2]; percent of patients of n = 371) was “(7%)”. The “Pain in Extremity Grade 3-4, (%)” value ([2]; percent of patients of n = 371) was “(1%)”, the “Peripheral Edema Grade 1-4, (%)” value ([2]; percent of patients of n = 371) was “(9%)” and the “Peripheral Edema Grade 3-4, (%)” value ([2]; percent of patients of n = 371) was “(<1%)”. For the same compound, the “Peripheral Neuropathy Grade 1-4, (%)” value ([2]; percent of patients of n = 371) was “(3.2%)”, the “Peripheral Neuropathy Grade 3-4, (%)” value ([2]; percent of patients of n = 371) was “(<1%)” and the “Pneumonia Grade 1-4, (%)” value ([2]; percent of patients of n = 371) was “(1%)”. The “Pneumonia Grade 3-4, (%)” value ([2]; percent of patients of n = 371) was “(<1%)”, the “Pyrexia Grade 1-4, (%)” value ([2]; percent of patients of n = 371) was “(6%)” and the “Pyrexia Grade 3-4, (%)” value ([2]; percent of patients of n = 371) was “(<1%)”. For the same compound, the “Urinary Tract Infection Grade 1-4, (%)” value ([2]; percent of patients of n = 371) was “(3%)”, the “Urinary Tract Infection Grade 3-4, (%)” value ([2]; percent of patients of n = 371) was “(1%)” and the “Vomiting Grade 1-4, (%)” value ([2]; percent of patients of n = 371) was “(10%)”. The “Weight Decreased Grade 1-4, (%)” value ([2]; percent of patients of n = 371) was “(8%)”, the “Weight Decreased Grade 3-4, (%)” value ([2]; percent of patients of n = 371) was “(<1%)” and the “Anemia Grade 1-4, (%)” value [2, 5] was “(82%)”. For the same compound, the “Anemia Grade 3-4, (%)” value [2, 5] was “(5%)”, the “Leukopenia Grade 1-4, (%)” value [2, 5] was “(93%)” and the “Leukopenia Grade 3-4, (%)” value [2, 5] was “(42%)”. The “Neutropenia Grade 1-4, (%)” value [2, 5] was “(87%)”, the “Neutropenia Grade 3-4, (%)” value [2, 5] was 58.0% and the “Thrombocytopenia Grade 1-4, (%)” value [2, 5] was “(43%)”. The “Thrombocytopenia Grade 3-4, (%)” value [2, 5] was “(2%)” and the “Neutropenia Grade 3-4, (%)” value ([2]; percent of patients, laboratory values, cabazitaxel: n = 369, mitoxantrone: n = 370, listed as Mitoxantrone) was “(58%)”.
For CC(=O)O[C@@]12CO[C@@H]1C[C@H](O)[C@@]1(C)C(=O)[C@H](O)C3=C(C)[C@@H](OC(=O)[C@H](O)[C@@H](NC(=O)OC(C)(C)C)c4ccccc4)C[C@@](O)([C@@H](OC(=O)c4ccccc4)[C@H]21)C3(C)C [docetaxel], the improvement of survival [3] is given as 2.4 months.
